# From ChEMBL document CHEMBL1146205, “Isatin sulfonamide analogs containing a Michael addition acceptor: a new class of caspase 3/7 inhibitors” (J Med Chem, 2007)
# Molecular target: T1, Caspase-7 (Homo sapiens, UniProt P55210)
# T1 sequence (P55210 whole entry): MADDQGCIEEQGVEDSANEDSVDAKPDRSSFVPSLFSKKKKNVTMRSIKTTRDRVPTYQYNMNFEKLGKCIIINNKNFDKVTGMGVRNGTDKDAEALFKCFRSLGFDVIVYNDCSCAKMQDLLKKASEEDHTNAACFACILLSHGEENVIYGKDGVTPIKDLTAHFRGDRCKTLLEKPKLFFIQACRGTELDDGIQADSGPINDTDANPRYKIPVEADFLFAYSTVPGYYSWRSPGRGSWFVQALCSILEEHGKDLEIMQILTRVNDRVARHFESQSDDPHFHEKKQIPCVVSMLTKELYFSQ
# Assay: Inhibition of human recombinant caspase 7
# Conditions: not given
row,SMILES,IC50
1,O=C1C(=O)N(Cc2ccc(Br)cc2)c2ccc(S(=O)(=O)N3CCC[C@H]3COc3ccccc3)cc21,34.8 nM
2,O=C1C(=O)N(Cc2ccc(O)cc2)c2ccc(S(=O)(=O)N3CCC[C@H]3COc3cccnc3)cc21,11.7 nM
3,N#CC(C#N)=C1C(=O)N(Cc2ccccc2)c2ccc(S(=O)(=O)N3CCC[C@H]3COc3cccnc3)cc21,32.8 nM
4,CN1C(=O)C(=C(C#N)C#N)c2cc(S(=O)(=O)N3CCC[C@H]3COc3ccccc3)ccc21,785 nM
5,O=C1C(=O)N(Cc2ccc(Br)cc2)c2ccc(S(=O)(=O)N3CCC[C@H]3COc3cccnc3)cc21,6.6 nM
6,N#CC(C#N)=C1C(=O)N(Cc2ccc(Br)cc2)c2ccc(S(=O)(=O)N3CCC[C@H]3COc3cccnc3)cc21,26.3 nM

# Molecular target: T2, Caspase-1 (Homo sapiens, UniProt P29466)
# T2 sequence (P29466 whole entry): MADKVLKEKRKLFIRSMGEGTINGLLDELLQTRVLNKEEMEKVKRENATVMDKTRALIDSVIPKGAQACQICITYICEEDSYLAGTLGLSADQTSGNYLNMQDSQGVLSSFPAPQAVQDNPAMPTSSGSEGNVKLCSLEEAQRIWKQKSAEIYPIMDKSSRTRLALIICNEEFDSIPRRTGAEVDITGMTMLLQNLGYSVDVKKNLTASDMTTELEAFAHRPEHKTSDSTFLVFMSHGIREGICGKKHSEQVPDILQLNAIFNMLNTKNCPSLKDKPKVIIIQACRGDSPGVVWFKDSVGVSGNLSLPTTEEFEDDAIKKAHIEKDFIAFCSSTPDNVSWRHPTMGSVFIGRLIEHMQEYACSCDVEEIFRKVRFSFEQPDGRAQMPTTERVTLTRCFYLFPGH
# Assay: Inhibition of human recombinant caspase 1
# Conditions: not given
row,SMILES,IC50
1,O=C1C(=O)N(Cc2ccc(Br)cc2)c2ccc(S(=O)(=O)N3CCC[C@H]3COc3ccccc3)cc21,> 15 µM
2,O=C1C(=O)N(Cc2ccc(O)cc2)c2ccc(S(=O)(=O)N3CCC[C@H]3COc3cccnc3)cc21,> 15 µM
3,N#CC(C#N)=C1C(=O)N(Cc2ccccc2)c2ccc(S(=O)(=O)N3CCC[C@H]3COc3cccnc3)cc21,3.25 µM
4,CN1C(=O)C(=C(C#N)C#N)c2cc(S(=O)(=O)N3CCC[C@H]3COc3ccccc3)ccc21,2.83 µM
5,O=C1C(=O)N(Cc2ccc(Br)cc2)c2ccc(S(=O)(=O)N3CCC[C@H]3COc3cccnc3)cc21,> 15 µM
6,N#CC(C#N)=C1C(=O)N(Cc2ccc(Br)cc2)c2ccc(S(=O)(=O)N3CCC[C@H]3COc3cccnc3)cc21,3.4 µM

# Molecular target: T3, Caspase-6 (Homo sapiens, UniProt P55212)
# T3 sequence (P55212 whole entry): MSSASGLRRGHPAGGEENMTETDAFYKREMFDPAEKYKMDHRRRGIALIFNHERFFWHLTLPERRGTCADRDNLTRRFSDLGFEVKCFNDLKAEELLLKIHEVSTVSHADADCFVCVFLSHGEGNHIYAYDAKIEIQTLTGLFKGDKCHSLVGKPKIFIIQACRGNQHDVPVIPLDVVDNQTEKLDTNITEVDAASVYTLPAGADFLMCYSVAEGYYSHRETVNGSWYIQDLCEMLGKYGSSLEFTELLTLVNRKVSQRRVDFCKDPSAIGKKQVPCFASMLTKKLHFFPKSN
# Assay: Inhibition of human recombinant caspase 6
# Conditions: not given
row,SMILES,IC50
1,O=C1C(=O)N(Cc2ccc(Br)cc2)c2ccc(S(=O)(=O)N3CCC[C@H]3COc3ccccc3)cc21,8900 nM
2,O=C1C(=O)N(Cc2ccc(O)cc2)c2ccc(S(=O)(=O)N3CCC[C@H]3COc3cccnc3)cc21,9550 nM
3,N#CC(C#N)=C1C(=O)N(Cc2ccccc2)c2ccc(S(=O)(=O)N3CCC[C@H]3COc3cccnc3)cc21,823 nM
4,CN1C(=O)C(=C(C#N)C#N)c2cc(S(=O)(=O)N3CCC[C@H]3COc3ccccc3)ccc21,698 nM
5,O=C1C(=O)N(Cc2ccc(Br)cc2)c2ccc(S(=O)(=O)N3CCC[C@H]3COc3cccnc3)cc21,5030 nM
6,N#CC(C#N)=C1C(=O)N(Cc2ccc(Br)cc2)c2ccc(S(=O)(=O)N3CCC[C@H]3COc3cccnc3)cc21,515 nM

# Tested on: not listed separately
# Assay: Partition coefficient of the compound, log P
# Assay type: physicochemical
# Conditions: octanol/water
row,SMILES,logP
1,O=C1C(=O)N(Cc2ccc(Br)cc2)c2ccc(S(=O)(=O)N3CCC[C@H]3COc3ccccc3)cc21,4.82
2,O=C1C(=O)N(Cc2ccc(O)cc2)c2ccc(S(=O)(=O)N3CCC[C@H]3COc3cccnc3)cc21,2.25
3,N#CC(C#N)=C1C(=O)N(Cc2ccccc2)c2ccc(S(=O)(=O)N3CCC[C@H]3COc3cccnc3)cc21,2.45
4,CN1C(=O)C(=C(C#N)C#N)c2cc(S(=O)(=O)N3CCC[C@H]3COc3ccccc3)ccc21,1.71
5,O=C1C(=O)N(Cc2ccc(Br)cc2)c2ccc(S(=O)(=O)N3CCC[C@H]3COc3cccnc3)cc21,3.76
6,N#CC(C#N)=C1C(=O)N(Cc2ccc(Br)cc2)c2ccc(S(=O)(=O)N3CCC[C@H]3COc3cccnc3)cc21,3.22

# Molecular target: Caspase-8 (Homo sapiens, UniProt Q14790)
# Sequence (Q14790 217-374 limits assumed): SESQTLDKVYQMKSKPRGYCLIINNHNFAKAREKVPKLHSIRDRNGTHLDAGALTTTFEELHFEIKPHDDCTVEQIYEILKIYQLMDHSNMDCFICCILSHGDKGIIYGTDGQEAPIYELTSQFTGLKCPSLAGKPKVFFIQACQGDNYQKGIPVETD
# Sequence (Q14790 385-479 limits assumed): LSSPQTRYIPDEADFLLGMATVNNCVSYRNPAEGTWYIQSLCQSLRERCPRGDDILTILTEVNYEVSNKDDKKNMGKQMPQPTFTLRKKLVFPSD
# Assay: Inhibition of human recombinant caspase 8
# Conditions: not given
row,SMILES,IC50
1,O=C1C(=O)N(Cc2ccc(Br)cc2)c2ccc(S(=O)(=O)N3CCC[C@H]3COc3ccccc3)cc21,> 50 µM
2,O=C1C(=O)N(Cc2ccc(O)cc2)c2ccc(S(=O)(=O)N3CCC[C@H]3COc3cccnc3)cc21,> 50 µM
3,N#CC(C#N)=C1C(=O)N(Cc2ccccc2)c2ccc(S(=O)(=O)N3CCC[C@H]3COc3cccnc3)cc21,> 50 µM
4,CN1C(=O)C(=C(C#N)C#N)c2cc(S(=O)(=O)N3CCC[C@H]3COc3ccccc3)ccc21,> 50 µM
5,O=C1C(=O)N(Cc2ccc(Br)cc2)c2ccc(S(=O)(=O)N3CCC[C@H]3COc3cccnc3)cc21,> 50 µM
6,N#CC(C#N)=C1C(=O)N(Cc2ccc(Br)cc2)c2ccc(S(=O)(=O)N3CCC[C@H]3COc3cccnc3)cc21,> 50 µM

# Molecular target: T4, Caspase-3 (Homo sapiens, UniProt P42574)
# T4 sequence (P42574 whole entry): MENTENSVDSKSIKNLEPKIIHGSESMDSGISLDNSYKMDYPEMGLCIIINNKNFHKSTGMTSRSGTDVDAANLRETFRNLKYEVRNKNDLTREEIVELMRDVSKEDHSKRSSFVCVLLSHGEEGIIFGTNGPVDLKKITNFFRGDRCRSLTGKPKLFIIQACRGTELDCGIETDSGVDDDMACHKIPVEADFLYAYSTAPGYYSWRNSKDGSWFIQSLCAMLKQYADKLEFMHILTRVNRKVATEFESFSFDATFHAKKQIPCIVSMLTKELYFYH
# Assay: Inhibition of human recombinant caspase 3
# Conditions: not given
row,SMILES,IC50
1,O=C1C(=O)N(Cc2ccc(Br)cc2)c2ccc(S(=O)(=O)N3CCC[C@H]3COc3ccccc3)cc21,9.85 nM
2,O=C1C(=O)N(Cc2ccc(O)cc2)c2ccc(S(=O)(=O)N3CCC[C@H]3COc3cccnc3)cc21,3.9 nM
3,N#CC(C#N)=C1C(=O)N(Cc2ccccc2)c2ccc(S(=O)(=O)N3CCC[C@H]3COc3cccnc3)cc21,7.6 nM
4,CN1C(=O)C(=C(C#N)C#N)c2cc(S(=O)(=O)N3CCC[C@H]3COc3ccccc3)ccc21,119 nM
5,O=C1C(=O)N(Cc2ccc(Br)cc2)c2ccc(S(=O)(=O)N3CCC[C@H]3COc3cccnc3)cc21,3.6 nM
6,N#CC(C#N)=C1C(=O)N(Cc2ccc(Br)cc2)c2ccc(S(=O)(=O)N3CCC[C@H]3COc3cccnc3)cc21,5.1 nM
